Test results taken from US6762207B1, “(E)-styryl sulfone anticancer agents” (priority 1999, dated 2004).

Key:
Format in all cases: cell-based
Parameters in all cases: dose or concentration left out as unconfirmed
Conditions in all cases: 96 hours
[1] = test system: breast tumor cell line MCF-7; assay: Trypan blue exclusion viability assay, MCF-7
Procedure: (§1) MCF-7 is estrogen-responsive, while BT-20 is an estrogen-unresponsive cell line. NIH/3T3 and HFL are normal murine and human fibroblasts, respectively. MCF-7, BT-20, DLD-1 and H157 were grown in Dulbecco's modified Eagle's medium (DMEM) containing 10% fetal bovine serum supplemented with penicillin and streptomycin. DU145 was cultured in RPMI with 10% fetal bovine serum containing penicillin and streptomycin. […] All cell cultures were maintained at 37° C. in a humidified atmosphere of 5% CO2. Cells were treated with test compound at 2.5 mM concentration and cell viability was determined after 96 hours by the Trypan blue exclusion method.

[2] = test system: prostate tumor cell line DU-145; assay: Trypan blue exclusion viability assay, DU145
Procedure: as §1

[3] = test system: colorectal carcinoma cell line DLD-1; assay: Trypan blue exclusion viability assay, DLD-1
Procedure: as §1

[4] = test system: non-small cell lung carcinoma cell line H157; assay: Trypan blue exclusion viability assay, H157
Procedure: as §1

[5] = test system: breast tumor cell line BT-20; assay: Trypan blue exclusion viability assay, BT20
Procedure: as §1

O=[N+]([O-])c1ccc(CS(=O)(=O)/C=C/c2ccc(F)cc2)cc1 [Example 9, (E)-4-Fluorostyryl-4-nitrobenzylsulfone]
Cell death, MCF-7 [1]: ++ (10-15% = ++) | Cell death, DU145 [2]: ++ (10-15% = ++) | Cell death, DLD-1 [3]: − (0% = −) | Cell death, H157 [4]: ++ (10-15% = ++) | Cell death, BT20 [5]: ++ (10-15% = ++)
